Reference: US20220401514A1, “ANTIMICROBIAL, BACTERIOPHAGE-DERIVED POLYPEPTIDES AND THEIR USE AGAINST GRAM-NEGATIVE AND ACID-FAST BACTERIA” (CONTRAFECT CORPORATION, priority 2019, published 2022)
Like-named read-outs stand apart in the source and are kept apart here.

Assays:
[1] = test system: P. aeruginosa strain CFS-1292; experiment: MIC in presence of mouse, rat, rabbit and human serum ([…] each); format: cell-based, Pseudomonas aeruginosa; settings: P. aeruginosa CFS-1292
Protocol: The activity of several Chp peptides against P. aeruginosa strain CFS-1292 in animal serum was evaluated. […] Rat, mouse, and rabbit serum were all obtained from pooled gender samples.

[2] = test system: Mycobacterium tuberculosis strains
Protocol: MIC values for various Chp peptides were determined using the CLSI method for broth microdilution in 96-well microtiter format.
Next, MIC values for various Chp peptides were determined using the CLSI method above for broth microdilution in 96-well microtiter format for two different Mycobacterium tuberculosis strains. The MIC was determined as explained above for the NTM strains.

[3] = test system: M. avium; experiment: 45 hr MIC against M. avium (NTM); format: cell-based, Mycobacterium avium; settings: M. avium Chester ATCC 700898
[4] = test system: P. aeruginosa strain CFS-1292; experiment: MIC at pH 6, pH 7 and pH 8; format: cell-based, Pseudomonas aeruginosa
Protocol: The Chp peptides were further evaluated at varying pH levels. The MIC values were determined at pH 6, pH 7, and pH 8 for 18 different Chp peptides against P. aeruginosa strain CFS-1292. […]

[5] = test system: Enterobacter cloacae; experiment: microbe, parasite or virus in culture; format: cell-based
Outline: (§1)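 Medium: CAA with added human serum. Peptides tested for minimal inhibitory concentration against each strain.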

[6] = test system: Escherichia coli; experiment: microbe, parasite or virus in culture; format: cell-based
Outline: as §1

[7] = test system: Pseudomonas aeruginosa; experiment: microbe, parasite or virus in culture; format: cell-based; settings: P. aeruginosa isolates (n per peptide in table)
[8] = test system: Acinetobacter baumannii; experiment: microbe, parasite or virus in culture; format: cell-based
[9] = test system: S. maltophilia; experiment: MIC against S. maltophilia isolates; format: cell-based, Stenotrophomonas maltophilia; settings: S. maltophilia isolates (n per peptide in table)
Outline: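 MIC in μg/mL for Chp peptides across several S. maltophilia isolates, n denoting the number of isolates tested.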

[10] = test system: carbapenem-resistant bacterial strains; experiment: organism not typed; format: cell-based
Text: (§2) Determination of Minimal Inhibitory Concentrations (MIC).

[11] = test system: M. kansasii Hauduroy ATCC 12478; experiment: 45 hr MIC against M. kansasii (NTM), Mueller Hinton broth; format: cell-based, Mycobacterium kansasii
[12] = test system: P. aeruginosa strain CFS-1292; experiment: MIC in presence and absence of Survanta pulmonary surfactant; format: cell-based, Pseudomonas aeruginosa
[13] = test system: M. smegmatis; experiment: 45 hr MIC against M. smegmatis (NTM), Mueller Hinton broth; format: cell-based, Mycobacterium smegmatis
[14] = test system: carbapenem-resistant P. aeruginosa clinical isolate CFS-1292; experiment: MIC by modified CLSI broth microdilution against P. aeruginosa CFS-1292 (CAA, CAA + human serum); format: cell-based, Pseudomonas aeruginosa
[15] = test system: M. fortuitum; experiment: 45 hr MIC against M. fortuitum (NTM); format: cell-based, Mycobacterium fortuitum; settings: M. fortuitum subsp. Fortuitum da Costa Cruz. ATCC 6841
[16] = test system: P. aeruginosa strain CFS-1292; experiment: MIC in presence and absence of NaCl (140 mM); format: cell-based, Pseudomonas aeruginosa
Protocol: Certain Chp peptides were evaluated over a range of physiological NaCl levels and pH values, and were further evaluated for activity in the presence of various divalent cations.

[17] = test system: M. scrofulaceum; experiment: 45 hr MIC against M. scrofulaceum (NTM); format: cell-based, Mycobacterium scrofulaceum; settings: M. scrofulaceum Prissick and Masson ATCC 19981
[18] = test system: P. aeruginosa strain CFS-1292; experiment: MIC in presence of divalent cations (calcium chloride, magnesium sulfate); format: cell-based, Pseudomonas aeruginosa
Protocol: Next, Chp peptides were evaluated in the presence of different divalent cations. […]; (2) in the presence of 2 mM calcium chloride alone; (3) in the presence of 1 mM magnesium sulfate alone; and (4) in the presence of both 2 mM calcium chloride and 1 mM magnesium sulfate. […]

[19] = test system: M. intracellulare; experiment: 45 hr MIC against M. intracellulare (NTM); format: cell-based, Mycobacterium intracellulare; settings: M. intracellulare (Cuttino and McCabe) Runyon ATCC 13950
[20] = test system: P. aeruginosa; experiment: 24-hour time-kill assay at 0.2x, 1x, 5x MIC in CAA, P. aeruginosa; format: cell-based, Pseudomonas aeruginosa
Protocol: The time-kill assays were performed in CAA media at 37° C. with aeration. Quantitative plating was performed at time periods of 0 hours, 1 hour, 3 hours, and 24 hours. The following Chp peptides were evaluated: Chp2, Chp4, Chp2-M1, Chp4-M1, Chp6, Chp6-M1, Chp10, Chp10-M1, Ecp3, Ecp3-M1, Unp2, Unp2-M1, and Ecp1-M1.

[21] = test system: Pseudomonas aeruginosa, Escherichia coli, Enterobacter cloacae, Klebsiella pneumoniae, and Acinetobacter baumannii; experiment: MIC against a range of Gram-negative organisms (statements covering several species); format: cell-based; settings: Tables 40-44 isolates
Protocol: as §2
(§3) Additional MIC testing was performed for several peptides against the ESKAPE pathogens Escherichia coli, Enterobacter cloacae, Klebsiella pneumoniae, and Acinetobacter baumannii, in CAA supplemented with human serum (Table D).

[22] = test system: Klebsiella pneumoniae; format: cell-based
Protocol: as §2, §3

[23] = Stability assessment in 100% CAA; format: in vitro ADME; set-up: unit not given beside the values
Protocol: Stability was assessed after incubation in 100% human serum at 37° C. after 10 minutes, 1 hour, and 2 hours.
Stability assessment was further conducted in 100% CAA and rabbit serum using the same methodology discussed above.

[24] = E. cloacae isolates (n per peptide in table)
[25] = E. coli isolates (n per peptide in table)
[26] = A. baumannii isolates (n per peptide in table)
[27] = K. pneumoniae isolates (n per peptide in table)

For “MKRRKLSKKKSRKIFTRGAVNVKKRNLRARPMRGGFRI [Chp10]”, the “MIC BALB/C Mouse Serum” value ([1]; BALB/C mouse serum […]) was 32 µg/mL, the “MIC CAA” value ([1]; CAA) was 1 µg/mL and the “MIC New Zealand White Rabbit Serum” value ([1]; New Zealand White rabbit serum […]) was 4 µg/mL. The “MIC Sprague Dawley Rat Serum” value ([1]; Sprague Dawley rat serum […]) was 4 µg/mL, the “MIC Human Serum” value ([1]; human serum […]) was 1 µg/mL and the MIC ([2]; Mycobacterium tuberculosis (Zopf) Lehmann and Neumann ATCC 25177) was 32 µg/mL. For the same sequence, the MIC ([2]; Mycobacterium tuberculosis (Zopf) Lehmann and Neumann ATCC 35817) was 8 µg/mL, the “45 hr MIC” value [3] was 0.5 µg/mL and the MIC ([4]; CAA media (pH 7)) was 0.5 µg/mL. For the same sequence, the MIC ([4]; pH 6) was 2 µg/mL, the MIC ([4]; pH 7) was 1 µg/mL and the MIC ([4]; pH 8) was 1 µg/mL. For the same sequence, the MIC50 [5, 24] was 0.25 µg/mL, the MIC100 [5, 24] was 1 µg/mL and the “MIC Range” value [5, 24] was 0.125 to 2 µg/mL. The MIC ([5]; Enterobacter cloacae ATCC 13047, CAA supplemented with human serum) was 1 µg/mL, the MIC50 [6, 25] was 0.5 µg/mL and the MIC100 [6, 25] was 1 µg/mL. The “MIC Range” value [6, 25] was 0.03 to 0.2 µg/mL, the MIC ([6]; Escherichia coli ATCC 25922, CAA supplemented with human serum) was 0.5 µg/mL and the MIC50 [7] was 4 µg/mL. For the same sequence, the MIC100 [7] was 8 µg/mL, the “MIC Range” value [7] was 0.5 to 8 µg/mL and the MIC50 [8, 26] was 0.5 µg/mL. The MIC100 [8, 26] was 0.5 µg/mL, the “MIC Range” value [8, 26] was 0.25 to 0.5 µg/mL and the MIC ([8]; Acinetobacter baumannii ATCC BAA 747, CAA supplemented with human serum) was 2 µg/mL. The MIC50 [9] was 8 µg/mL, the MIC100 [9] was >8 µg/mL and the MIC ([10]; carbapenem-resistant isolate PA19) was 0.5 µg/mL. For the same sequence, the MIC ([10]; carbapenem-resistant isolate PA20) was 8 µg/mL, the MIC ([10]; carbapenem-resistant isolate PA21) was 8 µg/mL and the MIC ([10]; carbapenem-resistant isolate PA22) was 8 µg/mL. It also gave an MIC ([10]; carbapenem-resistant isolate PA23) of 4 µg/mL, an MIC ([10]; carbapenem-resistant isolate PA24) of 4 µg/mL and an MIC ([10]; carbapenem-resistant isolate WLC-452) of 1 µg/mL. The “45 hr MIC” value [11] was 4 µg/mL, the MIC ([12]; CAA media + 0.19 mg/mL Survanta) was 0.5 µg/mL and the MIC ([12]; CAA media + […] Survanta) was 0.5 µg/mL. For the same sequence, the MIC ([12]; CAA media alone) was 0.5 µg/mL, the “45 hr MIC” value ([13]; M. smegmatis MC^2 155, Run #1) was 2 µg/mL and the “45 hr MIC” value ([13]; M. smegmatis MC^2 155, Run #2) was 1 µg/mL. The “MIC (μg/mL) against CFS-1292 in 100% CAA (1st run/2nd run)” value ([14]; 100% CAA, 1st run or single value) was 0.5 µg/mL, the “MIC (μg/mL) against CFS-1292 in CAA + […] human serum” value ([14]; CAA + […] human serum) was 0.5 µg/mL and the “45 hr MIC” value [15] was 1 µg/mL. For the same sequence, the “Fold change in MIC” value ([16]; CAA + 140 mM NaCl versus CAA without added NaCl) was 4, the MIC, CAA + 140 mM NaCl ([16]; CAA + 140 mM NaCl, P. aeruginosa CFS-1292) was 2 µg/mL and the MIC, CAA (no added NaCl) ([16]; CAA, no added NaCl, P. aeruginosa CFS-1292) was 0.5 µg/mL. For the same sequence, the “45 hr MIC” value [17] was 0.5 µg/mL, the MIC ([18]; CAA media + 1 mM MgSO4) was 1 µg/mL and the MIC ([18]; CAA media + 2 mM CaCl2) was 1 µg/mL. For the same sequence, the MIC ([18]; CAA media + + 1 mM MgSO4) was 2 µg/mL, the MIC ([18]; CAA media alone) was 0.5 µg/mL and the “45 hr MIC” value [19] was 0.5 µg/mL. For the same sequence, the “Log10 CFU/mL compared to untreated control buffer (24-hour time-kill)” value [20] was “all but Chp10 maintaining strong efficacy up to 24 hours”, the “activity (good = MIC100 of ≤4) against all of P. aeruginosa, K. pneumoniae, A. baumannii, E. cloacae, and E. coli” value [21] was “good activity” and the MIC50 [22, 27] was 0.25 µg/mL. The MIC100 [22, 27] was 0.5 µg/mL, the “MIC Range” value [22, 27] was 0.125 to 0.5 µg/mL and the MIC ([22]; Klebsiella pneumoniae HM-44, CAA supplemented with human serum) was 0.5 µg/mL. The “MIC (100% CAA)” value [23] was 0.5.
